Legend:
Type in all cases: in vivo
[1] = test system: wheat (Triticum aestivum); assay: Test A postemergence wheat; settings: Triticum aestivum, post-emergence, 240 h, 0 to 100 scale, 0 is no effect, 100 is complete control, read-out: Plant response rating, Wheat; for plant injury at 125 g/ha: 125 g ai/ha; for plant injury at 500 g/ha: 500 g ai/ha
Procedure, shortened: (§1)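 Directed soil spray at planting gives preemergence data; foliar application to one- to two-leaf plants gives postemergence data. Response is visual injury relative to untreated controls about 10 d after treatment, scored 0–100.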

kochia (Kochia scoparia) [2] = assay: Test A preemergence kochia; settings: Bassia scoparia, pre-emergence, 240 h, 0 to 100 scale, 0 no effect, 100 complete control, read-out: Kochia plant response rating; for pest or weed control at 125 g/ha: 125 g ai/ha; for pest or weed control at 500 g/ha: 500 g ai/ha
Procedure, shortened: as §1

[3] = test system: pigweed (Amaranthus retroflexus); assay: Test A postemergence pigweed; settings: Amaranthus retroflexus, post-emergence, 240 h, 0 to 100 scale, 0 is no effect, 100 is complete control, read-out: Plant response rating, Pigweed; for pest or weed control at 125 g/ha: 125 g ai/ha; for pest or weed control at 500 g/ha: 500 g ai/ha
Procedure, shortened: as §1

[4] = test system: barnyardgrass (Echinochloa crus-galli); assay: Test A postemergence barnyardgrass; settings: Echinochloa crus-galli, post-emergence, 240 h, 0 to 100 scale, 0 is no effect, 100 is complete control, read-out: Plant response rating, Barnyardgrass; for pest or weed control at 125 g/ha: 125 g ai/ha; for pest or weed control at 500 g/ha: 500 g ai/ha
Procedure, shortened: as §1

kochia (Kochia scoparia) [5] = assay: Test A postemergence kochia; settings: Bassia scoparia, post-emergence, 240 h, 0 to 100 scale, 0 is no effect, 100 is complete control, read-out: Plant response rating, Kochia; for pest or weed control at 125 g/ha: 125 g ai/ha; for pest or weed control at 500 g/ha: 500 g ai/ha
Procedure, shortened: as §1

[6] = test system: blackgrass (Alopecurus myosuroides); assay: Test A postemergence blackgrass; settings: Alopecurus myosuroides, post-emergence, 240 h, 0 to 100 scale, 0 is no effect, 100 is complete control, read-out: Plant response rating, Blackgrass; for pest or weed control at 125 g/ha: 125 g ai/ha; for pest or weed control at 500 g/ha: 500 g ai/ha
Procedure, shortened: as §1

[7] = test system: foxtail, giant (giant foxtail, Setaria faberii); assay: Test A preemergence foxtail, giant; settings: Setaria faberi, pre-emergence, 240 h, 0 to 100 scale, 0 no effect, 100 complete control, read-out: Foxtail, Giant plant response rating; for pest or weed control at 125 g/ha: 125 g ai/ha; for pest or weed control at 500 g/ha: 500 g ai/ha
Procedure, shortened: as §1

[8] = test system: ragweed (common ragweed, Ambrosia elatior); assay: Test A preemergence ragweed; settings: Ambrosia artemisiifolia, pre-emergence, 240 h, 0 to 100 scale, 0 no effect, 100 complete control, read-out: Ragweed plant response rating; for pest or weed control at 125 g/ha: 125 g ai/ha; for pest or weed control at 500 g/ha: 500 g ai/ha
Procedure, shortened: as §1

[9] = test system: ducksalad (Heteranthera limosa); assay: Test B flooded paddy test ducksalad; settings: Heteranthera limosa, Table B, Flood, scale 0 to 100, read-out: Plant response rating; for pest or weed control at 250 g/ha: 250 g ai/ha
Procedure, shortened: (§2)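 Visual injury relative to controls was scored after 13 to 15 d in the greenhouse. Treatment was by adding compound straight to flood water 3 cm deep, maintained for the whole test, on plants at the 2-leaf stage.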

[10] = test system: sedge, umbrella (small-flower umbrella sedge, Cyperus difformis); assay: Test B flooded paddy test sedge, umbrella; settings: Cyperus difformis, Table B, Flood, scale 0 to 100, read-out: Plant response rating; for pest or weed control at 250 g/ha: 250 g ai/ha
Procedure, shortened: as §2

[11] = test system: pigweed (Amaranthus retroflexus); assay: Test A preemergence pigweed; settings: Amaranthus retroflexus, pre-emergence, 240 h, 0 to 100 scale, 0 no effect, 100 complete control, read-out: Pigweed plant response rating; for pest or weed control at 125 g/ha: 125 g ai/ha; for pest or weed control at 500 g/ha: 500 g ai/ha
Procedure, shortened: as §1

[12] = test system: barnyardgrass (Echinochloa crus-galli); assay: Test B flooded paddy test barnyardgrass; settings: Echinochloa crus-galli, Table B, Flood, scale 0 to 100, read-out: Plant response rating; for pest or weed control at 250 g/ha: 250 g ai/ha
Procedure, shortened: as §2

[13] = test system: ragweed (common ragweed, Ambrosia elatior); assay: Test A postemergence ragweed; settings: Ambrosia artemisiifolia, post-emergence, 240 h, 0 to 100 scale, 0 is no effect, 100 is complete control, read-out: Plant response rating, Ragweed; for pest or weed control at 125 g/ha: 125 g ai/ha; for pest or weed control at 500 g/ha: 500 g ai/ha
Procedure, shortened: as §1

[14] = test system: barnyardgrass (Echinochloa crus-galli); assay: Test A preemergence barnyardgrass; settings: 0 to 100 scale; for pest or weed control at 125 g/ha: 125 g ai/ha
Procedure, shortened: as §1

rice (Oryza sativa) = assay: Test B flooded paddy test rice; settings: Oryza sativa, Table B, Flood, scale 0 to 100, read-out: Plant response rating; for plant injury at 250 g/ha: 250 g ai/ha
Procedure, shortened: as §2

corn (Zea mays) = assay: Test A postemergence corn; settings: Zea mays, post-emergence, 240 h, 0 to 100 scale, 0 is no effect, 100 is complete control; for Corn plant response rating (crop injury, 0 = no effect, 100 = complete kill) at 125 g/ha: 125 g ai/ha; for Corn plant response rating (crop injury, 0 = no effect, 100 = complete kill) at 500 g/ha: 500 g ai/ha
Procedure, shortened: as §1

[15] = test system: ryegrass, Italian (Italian ryegrass, Lolium multiflorum); assay: Test A preemergence ryegrass, Italian; settings: Lolium multiflorum, pre-emergence, 240 h, 0 to 100 scale, 0 no effect, 100 complete control, read-out: Ryegrass, Italian plant response rating; for pest or weed control at 125 g/ha: 125 g ai/ha; for pest or weed control at 500 g/ha: 500 g ai/ha
Procedure, shortened: as §1

[16] = test system: ryegrass, Italian (Italian ryegrass, Lolium multiflorum); assay: Test A postemergence ryegrass, Italian; settings: Lolium multiflorum, post-emergence, 240 h, 0 to 100 scale, 0 is no effect, 100 is complete control, read-out: Plant response rating, Ryegrass, Italian; for pest or weed control at 125 g/ha: 125 g ai/ha; for pest or weed control at 500 g/ha: 500 g ai/ha
Procedure, shortened: as §1

[17] = test system: foxtail, giant (giant foxtail, Setaria faberii); assay: Test A postemergence foxtail, giant; settings: Setaria faberi, post-emergence, 240 h, 0 to 100 scale, 0 is no effect, 100 is complete control, read-out: Plant response rating, Foxtail, Giant; for pest or weed control at 125 g/ha: 125 g ai/ha; for pest or weed control at 500 g/ha: 500 g ai/ha
Procedure, shortened: as §1

[18] = test system: galium (catchweed bedstraw, Galium aparine); assay: Test A postemergence galium; settings: Galium, post-emergence, 240 h, 0 to 100 scale, 0 is no effect, 100 is complete control, read-out: Plant response rating, Galium; for pest or weed control at 125 g/ha: 125 g ai/ha; for pest or weed control at 500 g/ha: 500 g ai/ha
Procedure, shortened: as §1

[19] = Echinochloa crus-galli, pre-emergence, 240 h, 0 no effect, 100 complete control, read-out: Barnyardgrass plant response rating

Structure (SMILES)	plant injury at 125 g/ha [1]	plant injury at 500 g/ha [1]	pest or weed control at 125 g/ha (kochia (Kochia scoparia) [2])	pest or weed control at 500 g/ha (kochia (Kochia scoparia) [2])	pest or weed control at 125 g/ha [3]	pest or weed control at 500 g/ha [3]	pest or weed control at 125 g/ha [4]	pest or weed control at 500 g/ha [4]	pest or weed control at 125 g/ha (kochia (Kochia scoparia) [5])	pest or weed control at 500 g/ha (kochia (Kochia scoparia) [5])	pest or weed control at 125 g/ha [6]	pest or weed control at 500 g/ha [6]	pest or weed control at 125 g/ha [7]	pest or weed control at 500 g/ha [7]	pest or weed control at 125 g/ha [8]	pest or weed control at 500 g/ha [8]	pest or weed control at 250 g/ha [9]	pest or weed control at 250 g/ha [10]	pest or weed control at 125 g/ha [11]	pest or weed control at 500 g/ha [11]	other results
O=C1NCCC(c2ccc(C(F)(F)F)cc2)C1C(=O)Nc1ccccc1F (stereo not shown) [Compound 14, N-(2-fluorophenyl)-2-oxo-4-[4-(trifluoromethyl)phenyl]-3-piperidinecarboxamide]	0%	0%	0%	20%	0%	0%	20%	90%	0%	0%	0%	0%	30%	90%	0%	0%	80%	0%	0%	0%	pest or weed control at 1000 g/ha ([9]; 1000 g ai/ha): 100%; pest or weed control at 1000 g/ha ([10]; 1000 g ai/ha): 0%; pest or weed control at 250 g/ha [12]: 30%; pest or weed control at 1000 g/ha ([12]; 1000 g ai/ha): 30%; pest or weed control at 125 g/ha [13]: 0%; pest or weed control at 500 g/ha [13]: 0%; Plant response rating, Barnyardgrass ([14]; 500 g ai/ha, 0 is no effect, 100 is complete control): 90; pest or weed control at 125 g/ha [14, 19]: 50%; plant injury at 250 g/ha (rice (Oryza sativa)): 0%; plant injury at 1000 g/ha (rice (Oryza sativa); 1000 g ai/ha): 0%; Corn plant response rating (crop injury, 0 = no effect, 100 = complete kill) at 125 g/ha (corn (Zea mays)): 0%; Corn plant response rating (crop injury, 0 = no effect, 100 = complete kill) at 500 g/ha (corn (Zea mays)): 0%; pest or weed control at 125 g/ha [15]: 0%; pest or weed control at 500 g/ha [15]: 0%; pest or weed control at 125 g/ha [16]: 0%; pest or weed control at 500 g/ha [16]: 0%; pest or weed control at 125 g/ha [17]: 30%; pest or weed control at 500 g/ha [17]: 90%; pest or weed control at 125 g/ha [18]: 0%; pest or weed control at 500 g/ha [18]: 0%
O=C1NCC[C@H](c2cccc(C(F)(F)F)c2)[C@H]1C(=O)Nc1cccc(F)c1F [Compound 21, (3R,4S)—N-(2,3-difluorophenyl)-2-oxo-4-[3-(trifluoromethyl)phenyl]-3-piperidinecarboxamide]	0%	60%	0%	0%	0%	20%	90%	90%	0%	0%	60%	80%	90%	90%	0%	0%	100%	0%	0%	0%	pest or weed control at 250 g/ha [12]: 75%; pest or weed control at 125 g/ha [13]: 0%; pest or weed control at 500 g/ha [13]: 0%; pest or weed control at 125 g/ha [14, 19]: 90%; pest or weed control at 500 g/ha ([14]; Echinochloa crus-galli, pre-emergence, 240 h, 500 g ai/ha, 0 no effect, 100 complete control, read-out: Barnyardgrass plant response rating): 90%; plant injury at 250 g/ha (rice (Oryza sativa)): 10%; Corn plant response rating (crop injury, 0 = no effect, 100 = complete kill) at 125 g/ha (corn (Zea mays)): 50%; Corn plant response rating (crop injury, 0 = no effect, 100 = complete kill) at 500 g/ha (corn (Zea mays)): 80%; pest or weed control at 125 g/ha [15]: 0%; pest or weed control at 500 g/ha [15]: 60%; pest or weed control at 125 g/ha [16]: 30%; pest or weed control at 500 g/ha [16]: 40%; pest or weed control at 125 g/ha [17]: 80%; pest or weed control at 500 g/ha [17]: 80%; pest or weed control at 125 g/ha [18]: 0%; pest or weed control at 500 g/ha [18]: 20%

Reference: patent publication US9944602B2, “Piperidinone herbicides” (E. I. DU PONT DE NEMOURS AND COMPANY, priority 2014, dated 2018)
